Columns and labels:
[1] = tested on: IFNg producing CD8^+ T (Tc1) cells; details: naïve mice; cited from earlier work
MCA205 sarcoma = experiment: Prophylactic vaccination with pulsed DCs followed by MCA205 challenge; format: in vivo, C57BL/6 mice; details: poly I:C-activated BM-DC pulsed with peptides (20 μg/ml) or heat-inactivated bacteria, s.c. twice 10 days apart
Description: FIG. 16. Protocol of immunization with DC pulsed with TMP peptides. After DCs differentiation (with GM-CSF and IL-4 during 6 days), we incubated them with poly I:C (10 μg/ml) overnight before the addition of peptide (1 hour) or heat-inactivated bacteria (6 hours). These DCs are injected subcutaneous on right flank at day 0 and 10. […] We constitute 4 groups, one group without DCs, one group with DCs pulsed with 20 μg/ml of irrelevant peptides (gr1) or TMP peptides or 13144 heat-inactivated bacteria. Mean tumor sizes over time (A), each mouse tumor kinetics for each group (B), and the detailed comparison in between groups at the two last time points before sacrifice for MCA205 are shown (C), each dot representing one mouse. MC38 related data are not shown.
FIG. 17. […] Tumor growth of MCA205 in mice vaccinated with DCs pulsed with gr1 peptides, TMP peptides and E. hirae 13144. (A) Mean±SEM of tumor sizes at different kinetics. (B) Tumor growth kinetics for each individual group of 5-10 mice. (C) Tumor sizes and statistical differences at time of sacrifice.
A-B. Prophylactic vaccinations. […] C-D. Therapeutic settings.
After DCs differentiation, these DCs were activated with poly I:C (10 μg/ml, Invivogen) overnight before infection with heat-inactivated (2 h at 65° C.) bacterial strains (MOI 10) or pulsed with peptides (20 μg/ml, peptide 2.0). […]

[2] = tested on: autologous CD4+ T cells or CD8+ T cells; experiment: Blood T cell responses of breast cancer patients to monocytes stimulated with bacteria (IFN-γ, IL-10 release); format: cell-based, human
Description: FIG. 22. T cell responses against commensals in blood from breast cancer patients at diagnosis priori to chemotherapy. Autologous monocytes harvested from breast cancer patients were stimulated with distinct bacterial spp. and then incubated with autologous CD4+ T cells or CD8+ T cells to monitor IFN-γ and IL-10 release. (A) TH1/Tc1/Tr1 immune responses to E. hirae 13144. […] (B) TH1/Tc1/Tr1 immune responses to E. coli or TCR cross-linking. BC women display memory T cell responses against E. coli and respond to TCR cross-linking.

ileal bacterial colonies = experiment: Culturomics and TMP PCR of ileal content after gavage with E. hirae 13144 and CTX; format: in vivo, C57BL/6 mice; details: 76 colonies, oral gavage + systemic CTX
Description: . […] Also refer to FIG. 39.
PCR amplification of the TMP sequence (refer to FIG. 36) in each colony growing after seeding of ileal content in aerobic conditions to isolate Gram+ bacteria. A photograph of each agarose electrophoresis gel is shown for each animal. A depicts the results in 5 naive mice and B depicts the findings after CTX+oral gavage with the phage encoding bacterium. Each vertical lane corresponds to one bacterium identified in MALDI-TOF. Initials are detailed in the lower part of panel A. The positive control (Ctl+) represents the DNA of E. hirae 13144.
We cultivated the stools (of patients) or ileal material (mice) after several dilutions in aerobic conditions and permissive medium to allow isolation of enterococci colonies (according to a procedure described in (Samb-Ba et al., 2014)). We performed a PCR of the TMP sequence in each single cultivable Enterococcus colony. One colony was put in 100 μl of nuclease-free water to release the bacterial DNA and PCR was performed with 5 μl of DNA, 12.5 μl of PCR master mix (Thermoscientific), 5 μl of nuclease-free water and 1.25 μl of each TMP primers (20 µM). […] The sequence of primers are: forward 5′-[…]-3′ ID No: reverse 5′-(SEQ 191) and […]-3′ (SEQ ID No: 192) (amplicon 1026 bp). […]

[3] = tested on: MCA205 cells with PSMB4 GSFARFRNI knock-in; experiment: Growth of Psmb4 knock-in MCA205 tumors under CTX +/- E. hirae 13144; format: in vivo, mice; details: L→F exchange in position 3, versus WT MCA205
pTh17 cells = experiment: Induction of pTh17 cells in secondary lymphoid organs of CTX-treated animals; format: in vivo
Description: The reasons for these differences were however unknown, and the inventors pursued their research to identify the factor(s) responsible for the immunogenic properties of the murine strain EH13144 and the human clones IGR4, IGR7 and IGR11, in order to derive new molecules or microorganisms useful in the treatment of cancer.

[4] = tested on: TMP1-specific CD8+ T cells

Row | Substance | immunogenic and oncomicrobiotic properties of the isolate [1] | protection against MCA205 tumor challenge (MCA205 sarcoma) | BC patients who developed IL-10 producing memory CD4+ T cell responses ([2]; FIG. 22A) [%] | BC patients with CD4+ T cells exhibiting no reactivity to pulsed monocytes ([2]; FIG. 22A) [%] | BC patients at diagnosis exhibiting a blood TH1/Tc1 immune response ([2]; prior to chemotherapy) | in vivo transduction of by-stander Enterococci by the phage (ileal bacterial colonies) | anticancer effect on PSMB4 knock-in (GSFARFRNI) MCA205 tumors [3] | capacity to induce pTh17 cells in secondary lymphoid organs (pTh17 cells) | splenic CD8+ T cells recognizing the TMP1 peptide ([4]; day 12 following CTX/E. hirae 13144 regimen, FIG. 27F) | enrichment of TMP1-specific CTLs in the TC1 subset harboring CCR9 ([4]; spleens from naive and tumor bearers, tumor draining lymph nodes)
1 | Enterococcus hirae 708 [Peptide 708, reference compound] | induced IFNg producing CD8^+ T (Tc1) cells | – | – | – | – | – | – | – | – | –
2 | Enterococcus hirae strain 13144 [Peptide 13144] | – | reduced tumor growth | 52 | 32 | Less than 20% | E. gallinarum was the only by-stander Enterococci transduced | drastically blunted the anticancer effects | significant capacity to induce pTh17 cells | Up to 1% | 3-5 fold

From patent publication US12102672B2, “Immunogenic sequences from a phage tail length tape measure protein, bacteria expressing the same and their use in treating a cancer” (INSTITUT GUSTAVE ROUSSY, priority 2017, dated 2024)
